Measured values taken from the NIST ThermoML archive (doi:10.1021/je0496140).
Numbers after ± are expanded uncertainties.

Experiments:
[1] = 101.33 kPa, Liquid
[2] = xn = mol fraction of the nth substance listed; conditions: 101.33 kPa, Liquid

CCCCO [butan-1-ol]
[1]
Conditions	mass density [kg/m3]	viscosity [mPa·s]
288.15 K	813.42 ± 0.43	3.346 ± 0.038
298.15 K	805.4 ± 0.44	2.56 ± 0.029
308.15 K	798.14 ± 0.45	1.991 ± 0.023
318.15 K	790.19 ± 0.47	1.569 ± 0.019

CCC(C)O (centres undefined) [butan-2-ol]
[1]
Conditions	mass density [kg/m3]	viscosity [mPa·s]
288.15 K	810.72 ± 0.59	4.509 ± 0.055
298.15 K	801.82 ± 0.6	3.035 ± 0.038
308.15 K	794.07 ± 0.6	2.111 ± 0.027
318.15 K	785.15 ± 0.61	1.523 ± 0.02

CC(C)(C)O [2-methylpropan-2-ol]
[1]
Conditions	mass density [kg/m3]	viscosity [mPa·s]
298.15 K	779.96 ± 0.51	4.433 ± 0.051
303.15 K	775.3 ± 0.52	3.355 ± 0.039
308.15 K	770.19 ± 0.53	2.611 ± 0.031
313.15 K	764.83 ± 0.54	2.074 ± 0.025
318.15 K	759.52 ± 0.54	1.685 ± 0.02

CC(C)CO [2-methyl-1-propanol]
[1]
Conditions	mass density [kg/m3]	viscosity [mPa·s]
288.15 K	805.47 ± 0.48	4.805 ± 0.055
298.15 K	797.37 ± 0.49	3.435 ± 0.04
308.15 K	790.1 ± 0.5	2.508 ± 0.029
318.15 K	781.99 ± 0.51	1.87 ± 0.022

CCCCCl [1-chlorobutane] + CCCCO
[2]
Conditions	mass density [kg/m3]	viscosity [mPa·s]
288.15 K, x2 = 0.062	886.96 ± 0.37	–
288.15 K, x2 = 0.0949	–	0.509 ± 0.007
288.15 K, x2 = 0.1027	883.98 ± 0.37	–
288.15 K, x2 = 0.1383	881.38 ± 0.37	–
288.15 K, x2 = 0.1964	–	0.57 ± 0.008
288.15 K, x2 = 0.2032	876.67 ± 0.37	–
288.15 K, x2 = 0.2597	872.57 ± 0.37	–
288.15 K, x2 = 0.2859	870.67 ± 0.37	–
288.15 K, x2 = 0.2961	–	0.655 ± 0.009
288.15 K, x2 = 0.3764	864.06 ± 0.38	–
288.15 K, x2 = 0.3949	–	0.774 ± 0.01
288.15 K, x2 = 0.3967	862.58 ± 0.38	–
288.15 K, x2 = 0.4541	858.3 ± 0.38	–
288.15 K, x2 = 0.4822	856.17 ± 0.38	–
288.15 K, x2 = 0.4941	–	0.94 ± 0.012
288.15 K, x2 = 0.5076	854.25 ± 0.38	–
288.15 K, x2 = 0.5466	851.25 ± 0.39	–
288.15 K, x2 = 0.5818	848.53 ± 0.39	–
288.15 K, x2 = 0.5915	–	1.175 ± 0.014
288.15 K, x2 = 0.6332	844.49 ± 0.39	–
288.15 K, x2 = 0.6747	841.19 ± 0.39	–
288.15 K, x2 = 0.6954	–	1.503 ± 0.018
288.15 K, x2 = 0.7342	836.4 ± 0.4	–
288.15 K, x2 = 0.7698	833.49 ± 0.4	–
288.15 K, x2 = 0.794	–	1.934 ± 0.023
288.15 K, x2 = 0.8509	826.62 ± 0.41	–
288.15 K, x2 = 0.892	–	2.529 ± 0.029
288.15 K, x2 = 0.9022	822.13 ± 0.41	–
288.15 K, x2 = 0.9582	817.04 ± 0.42	–
298.15 K, x2 = 0.0949	–	0.452 ± 0.007
298.15 K, x2 = 0.1964	–	0.504 ± 0.007
298.15 K, x2 = 0.2961	–	0.57 ± 0.008
298.15 K, x2 = 0.3949	–	0.661 ± 0.009
298.15 K, x2 = 0.4941	–	0.788 ± 0.01
298.15 K, x2 = 0.5915	–	0.955 ± 0.012
298.15 K, x2 = 0.6954	–	1.204 ± 0.015
298.15 K, x2 = 0.794	–	1.525 ± 0.018
298.15 K, x2 = 0.892	–	1.955 ± 0.023
308.15 K, x2 = 0.0949	–	0.407 ± 0.006
308.15 K, x2 = 0.1056	861.88 ± 0.4	–
308.15 K, x2 = 0.1964	–	0.448 ± 0.006
308.15 K, x2 = 0.1979	855.62 ± 0.4	–
308.15 K, x2 = 0.2842	849.82 ± 0.4	–
308.15 K, x2 = 0.2961	–	0.501 ± 0.007
308.15 K, x2 = 0.3908	842.67 ± 0.4	–
308.15 K, x2 = 0.3949	–	0.576 ± 0.008
308.15 K, x2 = 0.4941	–	0.67 ± 0.009
308.15 K, x2 = 0.4964	835.5 ± 0.41	–
308.15 K, x2 = 0.5913	828.95 ± 0.41	–
308.15 K, x2 = 0.5915	–	0.797 ± 0.01
308.15 K, x2 = 0.6908	821.85 ± 0.42	–
308.15 K, x2 = 0.6954	–	0.984 ± 0.012
308.15 K, x2 = 0.7917	814.48 ± 0.43	–
308.15 K, x2 = 0.794	–	1.226 ± 0.015
308.15 K, x2 = 0.892	–	1.547 ± 0.018
308.15 K, x2 = 0.9003	806.19 ± 0.44	–
318.15 K, x2 = 0.0612	853.78 ± 0.41	–
318.15 K, x2 = 0.0913	851.66 ± 0.41	–
318.15 K, x2 = 0.0949	–	0.367 ± 0.006
318.15 K, x2 = 0.1849	845.48 ± 0.41	–
318.15 K, x2 = 0.1964	–	0.401 ± 0.006
318.15 K, x2 = 0.2759	839.66 ± 0.41	–
318.15 K, x2 = 0.2961	–	0.444 ± 0.006
318.15 K, x2 = 0.3836	832.82 ± 0.42	–
318.15 K, x2 = 0.3949	–	0.503 ± 0.007
318.15 K, x2 = 0.4858	826.26 ± 0.42	–
318.15 K, x2 = 0.4941	–	0.577 ± 0.008
318.15 K, x2 = 0.5859	819.71 ± 0.43	–
318.15 K, x2 = 0.5915	–	0.674 ± 0.009
318.15 K, x2 = 0.6868	812.99 ± 0.43	–
318.15 K, x2 = 0.6954	–	0.816 ± 0.01
318.15 K, x2 = 0.7868	806.09 ± 0.44	–
318.15 K, x2 = 0.794	–	0.993 ± 0.012
318.15 K, x2 = 0.8906	798.56 ± 0.45	–
318.15 K, x2 = 0.892	–	1.238 ± 0.015
